What is called IC50 is the concentration needed to halve the response being measured. The term logD denotes the decadic logarithm of the distribution of all forms, ionised or not, between an organic phase and buffer at a given pH.

Here are results for 20 molecules from paper PMC8835841, “Novel NK1R-Targeted ^68Ga-/^177Lu-Radioconjugates with Potential Application against Glioblastoma Multiforme: Preliminary Exploration of Structure–Activity Relationships” (International Journal of Molecular Sciences, 2022).

One data set concerns the target T1, hNK1R (Homo sapiens, UniProt P25103).
T1 construct: expressed in transfected cells; host or cells: CHO-K1 (hNK1-CHO), gift from Dr. Attila Keresztes and Dr. John M. Streicher
Put plainly: Competitive radioligand binding assay, hNK1-CHO cell homogenates, [3H]-(Sar9,Met(O2)11)-Substance P. Conditions: for IC50: hNK1-CHO cell homogenates, mean of three independent experiments in duplicate unless stated, read-out: IC50 (Mean ± SD) hNK1R; for fold weaker hNK1R binding than parent compound: relative to L732,138 (1c). As to the method:
The CHO-K1 cells with a stable overexpression of the human NK1 receptor, denoted further on as hNK1-CHO cells, were obtained as a gift from Dr. Attila Keresztes and Dr. John M. Streicher. The cells were maintained in a humidified atmosphere with 5% CO2 at 37 °C, in Ham’s F12 medium (Corning, Corning, NY, USA) supplemented with 10% Foetal Bovine Serum (CytoGen, Wetzlar, Germany) and 400 μg/mL G418 (Corning, Corning, NY, USA).
When the cells reached approximately 90% confluence, they were harvested by treatment with 0.05% trypsin/EDTA (Corning, Corning, NY, USA). After centrifugation at 1500 rpm for 5 min, the cells were homogenized in a glass tissue homogenizer in ice-cold 50 mM Tris-HCl buffer (pH 7.4) with 5 mM MnCl2. The preparation was collected by centrifugation at 13,000 rpm for 25 min at 4 °C, and then the pellet was suspended in 50 mM Tris-HCl buffer. The homogenates were stored at −80 °C for later use. The BCA assay (Thermo Scientific, Waltham, MA, USA) was used to determine the protein concentration in the homogenates.
(§1) The binding affinity of the tested compounds for human and rat NK1R was determined in competitive radioligand binding assays following the method previously described. As a source of the receptor proteins, homogenates obtained from rat brains (obtained as described in Ref [30]) or homogenates made from hNK1-CHO cells were used. […] The final reaction volumes were 250 μL and 1 mL, for the human and rat NK1R determinations, respectively. […] The binding reaction mixtures were incubated in a shaking water bath at 25 °C for 60 min. The reaction was terminated by rapid filtration through Whatman GF/B filter (Gaithersburg, MD) presoaked in 0.5% polyethyleneimine and washed three times with 2 mL of cold saline. The filters were placed in 24-well plates and immersed in a Betaplate Scint scintillation solution (Perkin Elmer, Waltham, MA, USA). The filter-bound radioactivity was determined by scintillation counter MicroBeta LS, Trilux (PerkinElmer, Waltham, MA, USA).
(§2) The displacement curves were drawn and the mean IC50 values were determined with standard deviations (GraphPad Prism version 8.0, San Diego, CA, USA). At least three independent experiments (carried out in duplicate) were performed.

In another data set the target is T2, rNK1R (Rattus norvegicus, UniProt P14600).
T2 construct: As a source of the receptor proteins, homogenates obtained from rat brains; from tissue; host or cells: rat brain homogenate
In words: Competitive radioligand binding assay, rat brain homogenates, [3H]-(Sar9,Met(O2)11)-Substance P. The settings on record: mean of three independent experiments in duplicate unless stated; for IC50: read-out: IC50 (Mean ± SD) rNK1R. As for the experimental part:
as §1, §2

A short description of another data set: physchem. Format: physicochemical. As to the method: A lipophilicity study was also performed right after the SPE method purification and ethanol evaporation. For each DOTA radioconjugate, the lipophilicity value was estimated as the logarithm of the distribution coefficient (D) based on the ratio of the radioactivity of the organic phase to the radioactivity of the aqueous phase in the n-octanol/PBS (pH 7.40) system. Simultaneously, the stability of the studied radioconjugate during the experiment was verified through the HPLC analysis of the aqueous phase.
A solution of isolated radioconjugate (approximately 0.5 MBq for ^177Lu-radioconjugates or 5 MBq for ^68Ga-radioconjugates) in 500 µL of 0.1 M PBS buffer (pH 7.40) and 500 µL of n-octanol was vigorously stirred and centrifuged (13,500 rpm for 5 min) to separate the immiscible phases. Then, the radioactivity of samples from both phases were measured using a well-type NaI(Tl) detector. The distribution coefficient, D, was calculated dividing the radioactivity of the radioconjugate in the organic phase to that in the aqueous phase. Each experiment was performed in triplicate and averaged. In parallel, the aqueous phases were analysed by HPLC to confirm the stability of studied radioconjugate during the experiment period. The lipophilicity value of each radioconjugates was expressed as the logarithm of its D value.

Where [1] appears, read: pH 7.4, logD7.4 (Mean ± SD) 177Lu-.
Where [2] appears, read: pH 7.4, logD7.4 (Mean ± SD) 68Ga-.

Some results are limits rather than exact numbers.

T2 sequence (P14600 whole entry): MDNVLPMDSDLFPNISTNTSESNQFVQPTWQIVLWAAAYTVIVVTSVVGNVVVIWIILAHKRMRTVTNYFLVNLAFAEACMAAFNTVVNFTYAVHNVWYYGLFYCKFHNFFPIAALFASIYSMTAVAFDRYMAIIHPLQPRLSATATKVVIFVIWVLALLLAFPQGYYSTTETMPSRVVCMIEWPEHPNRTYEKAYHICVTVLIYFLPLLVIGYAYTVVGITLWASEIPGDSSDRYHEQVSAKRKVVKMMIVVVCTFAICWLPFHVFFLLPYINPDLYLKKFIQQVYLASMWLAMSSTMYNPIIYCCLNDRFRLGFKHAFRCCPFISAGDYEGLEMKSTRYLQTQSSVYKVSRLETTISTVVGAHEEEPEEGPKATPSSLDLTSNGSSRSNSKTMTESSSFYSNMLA
T1 sequence (P25103 whole entry): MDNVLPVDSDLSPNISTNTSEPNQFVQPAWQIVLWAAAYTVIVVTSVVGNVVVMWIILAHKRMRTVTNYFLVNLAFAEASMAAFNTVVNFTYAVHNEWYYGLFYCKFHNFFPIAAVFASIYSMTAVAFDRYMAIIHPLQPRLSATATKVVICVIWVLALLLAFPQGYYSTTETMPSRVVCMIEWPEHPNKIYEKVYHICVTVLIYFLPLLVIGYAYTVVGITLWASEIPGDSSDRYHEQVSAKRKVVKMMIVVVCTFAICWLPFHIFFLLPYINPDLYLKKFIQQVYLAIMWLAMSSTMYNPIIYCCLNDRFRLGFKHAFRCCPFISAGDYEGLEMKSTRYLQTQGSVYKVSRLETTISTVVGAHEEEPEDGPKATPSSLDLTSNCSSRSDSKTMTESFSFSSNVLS

On to `CC(C)(C)OC(=O)NCCCCCC(=O)N[C@@H](Cc1c[nH]c2ccccc12)C(=O)OCc1cc(C(F)(F)F)cc(C(F)(F)F)c1` [Compound 4a, 3,5-bis(trifluoromethyl)benzyl (6-((tert-butoxycarbonyl)amino)hexanoyl)-L-tryptophanate], for which the IC50 worked out at 60.7 ± 31.9 nM on hNK1R and 1660 ± 1050 nM at rNK1R.

With `NCCCCCC(=O)NCCCCCC(=O)N[C@@H](Cc1c[nH]c2ccccc12)C(=O)OCc1cc(C(F)(F)F)cc(C(F)(F)F)c1.O=C(O)C(F)(F)F` [Compound 5b, (S)-6-((6-((1-((3,5-bis(trifluoromethyl)benzyl)oxy)-3-(1H-indol-3-yl)-1-oxopropan-2-yl)amino)-6-oxohexyl)amino)-6-oxohexan-1-aminium 2,2,2-trifluoroacetate], the IC50 at hNK1R came to 20.4 ± 10.2 nM; on rNK1R, 572 ± 41 nM. Besides, the “IC50 (Mean ± SD) rNK1R” value at rNK1R was “submicromolar”.

For the molecule `CC(=O)NCCCCCC(=O)N[C@@H](Cc1c[nH]c2ccccc12)C(=O)OCc1cc(C(F)(F)F)cc(C(F)(F)F)c1` [Compound 4c, 3,5-bis(trifluoromethyl)benzyl (6-acetamidohexanoyl)-L-tryptophanate], the IC50 is 83.1 ± 69.3 nM on hNK1R and 1950 ± 641 nM at rNK1R.

In “physchem” (setting [1]), `C[C@@H](NC(=O)CN1CCN(CC(=O)O)CCN(CC(=O)O)CCN(CC(=O)O)CC1)C(=O)N[C@H](C)C(=O)N[C@@H](Cc1c[nH]c2ccccc12)C(=O)OCc1cc(C(F)(F)F)cc(C(F)(F)F)c1` [[^177Lu]Lu-3d, metal not drawn] came in with a logD of 0.619 ± 0.007.

With `CC(C)(C)OC(=O)N[C@@H](Cc1c[nH]c2ccccc12)C(=O)OCc1cc(C(F)(F)F)cc(C(F)(F)F)c1` [Compound 1a, 3,5-bis(trifluoromethyl)benzyl (tert-butoxycarbonyl)-L-tryptophanate], on hNK1R, the IC50 worked out at 180 ± 112 nM and the “fold weaker hNK1R binding than parent compound” value is on record as 7 ×. At rNK1R, the IC50 worked out at 2930 ± 1520 nM.

As to `CC(C)(C)OC(=O)NCCCCCC(=O)NCCCCCC(=O)N[C@@H](Cc1c[nH]c2ccccc12)C(=O)OCc1cc(C(F)(F)F)cc(C(F)(F)F)c1` [Compound 5a, 3,5-bis(trifluoromethyl)benzyl (6-(6-((tert-butoxycarbonyl)amino)hexanamido)hexanoyl)-L-tryptophanate], the IC50 on hNK1R was 4.5 ± 2.8 nM. For the same molecule, at rNK1R, the “IC50 (Mean ± SD) rNK1R” value is reported as “submicromolar” and the half-inhibitory concentration (IC50) is 762 ± 295 nM.

Consider `C[C@@H](N)C(=O)N[C@@H](Cc1c[nH]c2ccccc12)C(=O)OCc1cc(C(F)(F)F)cc(C(F)(F)F)c1` [Compound 2b, (R)-1-(((S)-1-((3,5-bis(trifluoromethyl)benzyl)oxy)-3-(1H-indol-3-yl)-1-oxopropan-2-yl)amino)-1-oxopropan-2-aminium 2,2,2-trifluoroacetate], for which the IC50 at hNK1R was determined as 25.4 ± 12.5 nM; on rNK1R it was 4680 ± 1320 nM.

In the case of `O=C(O)CN1CCN(CC(=O)O)CCN(CC(=O)N[C@@H](Cc2c[nH]c3ccccc23)C(=O)OCc2cc(C(F)(F)F)cc(C(F)(F)F)c2)CCN(CC(=O)O)CC1` [Ga-1d], the IC50 is 5.1 ± 2 nM at hNK1R and 112 ± 3 nM at rNK1R.

For `CC(=O)N[C@H](C)C(=O)N[C@@H](Cc1c[nH]c2ccccc12)C(=O)OCc1cc(C(F)(F)F)cc(C(F)(F)F)c1` [Compound 2c, 3,5-bis(trifluoromethyl)benzyl acetyl-D-alanyl-L-tryptophanate], the IC50 at hNK1R worked out at 25.3 ± 0.4 nM; on rNK1R, 2280 ± 703 nM.

The molecule `O=C(O)CN1CCN(CC(=O)O)CCN(CC(=O)N[C@@H](Cc2c[nH]c3ccccc23)C(=O)OCc2cc(C(F)(F)F)cc(C(F)(F)F)c2)CCN(CC(=O)O)CC1` [[^68Ga]Ga-1d, metal not drawn] gave a logD in “physchem” (setting [2]) of -0.085 ± 0.015.

Regarding `CC(=O)N[C@H](C)C(=O)N[C@H](C)C(=O)N[C@@H](Cc1c[nH]c2ccccc12)C(=O)OCc1cc(C(F)(F)F)cc(C(F)(F)F)c1` [Compound 3c, 3,5-bis(trifluoromethyl)benzyl acetyl-D-alanyl-D-alanyl-L-tryptophanate], the IC50 on hNK1R worked out at 13.5 ± 12.1 nM; on rNK1R, 1140 ± 289 nM.

For `O=C(O)CN1CCN(CC(=O)O)CCN(CC(=O)NCCCCCC(=O)NCCCCCC(=O)N[C@@H](Cc2c[nH]c3ccccc23)C(=O)OCc2cc(C(F)(F)F)cc(C(F)(F)F)c2)CCN(CC(=O)O)CC1` [[^68Ga]Ga-5d, metal not drawn], the logD in “physchem” (setting [2]) is -0.466 ± 0.016.

On to `C[C@@H](NC(=O)OC(C)(C)C)C(=O)N[C@@H](Cc1c[nH]c2ccccc12)C(=O)OCc1cc(C(F)(F)F)cc(C(F)(F)F)c1` [Compound 2a, 3,5-bis(trifluoromethyl)benzyl (tert-butoxycarbonyl)-D-alanyl-L-tryptophanate], for which the results for the IC50 on hNK1R and on rNK1R were 135 ± 108 nM and 1530 ± 279 nM, respectively.

Regarding `NCCCCCC(=O)N[C@@H](Cc1c[nH]c2ccccc12)C(=O)OCc1cc(C(F)(F)F)cc(C(F)(F)F)c1` [Compound 4b, (S)-6-((1-((3,5-bis(trifluoromethyl)benzyl)oxy)-3-(1H-indol-3-yl)-1-oxopropan-2-yl)amino)-6-oxohexan-1-aminium 2,2,2-trifluoroacetate], the half-inhibitory concentration (IC50) on hNK1R came out at 35.4 ± 23.6 nM; at rNK1R, 1400 ± 319 nM.

In the case of `C[C@@H](NC(=O)OC(C)(C)C)C(=O)N[C@H](C)C(=O)N[C@@H](Cc1c[nH]c2ccccc12)C(=O)OCc1cc(C(F)(F)F)cc(C(F)(F)F)c1` [Compound 3a, 3,5-bis(trifluoromethyl)benzyl (tert-butoxycarbonyl)-D-alanyl-D-alanyl-L-tryptophanate], on hNK1R, the IC50 worked out at 13.9 ± 11.2 nM. Also, on rNK1R, the “IC50 (Mean ± SD) rNK1R” value is “submicromolar” and the IC50 was 745 ± 311 nM.

Molecule `O=C(O)CN1CCN(CC(=O)O)CCN(CC(=O)NCCCCCC(=O)NCCCCCC(=O)N[C@@H](Cc2c[nH]c3ccccc23)C(=O)OCc2cc(C(F)(F)F)cc(C(F)(F)F)c2)CCN(CC(=O)O)CC1` [[^177Lu]Lu-5d, metal not drawn] displayed a logD in “physchem” (setting [1]) of 0.294 ± 0.013.

In the case of `CC(=O)NCCCCCC(=O)NCCCCCC(=O)N[C@@H](Cc1c[nH]c2ccccc12)C(=O)OCc1cc(C(F)(F)F)cc(C(F)(F)F)c1` [Compound 5c, 3,5-bis(trifluoromethyl)benzyl (6-(6-acetamidohexanamido)hexanoyl)-L-tryptophanate], the IC50 on hNK1R was determined as 14.3 ± 5.2 nM. Besides, on rNK1R, the “IC50 (Mean ± SD) rNK1R” value is “submicromolar” and the IC50 turned out to be 655 ± 120 nM.

On to `C[C@@H](N)C(=O)N[C@H](C)C(=O)N[C@@H](Cc1c[nH]c2ccccc12)C(=O)OCc1cc(C(F)(F)F)cc(C(F)(F)F)c1` [Compound 3b, (R)-1-(((R)-1-(((S)-1-((3,5-bis(trifluoromethyl)benzyl)oxy)-3-(1H-indol-3-yl)-1-oxopropan-2-yl)amino)-1-oxopropan-2-yl)amino)-1-oxopropan-2-aminium 2,2,2-trifluoroacetate], for which the IC50 at hNK1R worked out at 80.8 ± 59.7 nM; on rNK1R, 4010 ± 1370 nM.

Regarding `N[C@@H](Cc1c[nH]c2ccccc12)C(=O)OCc1cc(C(F)(F)F)cc(C(F)(F)F)c1.O=C(O)C(F)(F)F` [Compound 1b, (S)-1-((3,5-bis(trifluoromethyl)benzyl)oxy)-3-(1H-indol-3-yl)-1-oxopropan-2-aminium 2,2,2-trifluoroacetate], at hNK1R, the IC50 was found to be 359 ± 132 nM and the “fold weaker hNK1R binding than parent compound” value stood at 14 ×. Moreover, the IC50 on rNK1R was over 10000 nM.

For `O=C(O)CN1CCN(CC(=O)O)CCN(CC(=O)NCCCCCC(=O)N[C@@H](Cc2c[nH]c3ccccc23)C(=O)OCc2cc(C(F)(F)F)cc(C(F)(F)F)c2)CCN(CC(=O)O)CC1` [Compound 4d], at hNK1R, the IC50 is 8.7 ± 3.2 nM.
